In ChEMBL document CHEMBL1201862, “PubChem BioAssay data set” (2004):
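Exposure lasted 48 hours, with cells grown in 96-well plates and compounds tested at five concentrations. GI50 = concentration required for 50% inhibition of growth.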 The source made the active and inactive calls. Cut-off read from the data, not from the text of the source: active = GI50 up to about 1.1 µM and inactive = higher.

Key:
Experiment in all cases: DTP human tumour cell line panel, 48 h
HCT-15 = system: HCT-15
HOP-62 = system: HOP-62
RPMI-8226 = system: RPMI-8226
786-0 = system: 786-0
MCF7 = system: MCF7
SF-539 = system: SF-539
IGROV-1 = system: IGROV-1
HCT-116 = system: HCT-116
SK-MEL-5 = system: SK-MEL-5
COLO 205 = system: COLO 205
PC-3 = system: PC-3
NCI/ADR-RES = system: NCI/ADR-RES
SK-MEL-28 = system: SK-MEL-28
NCI-H23 = system: NCI-H23
OVCAR-3 = system: OVCAR-3
OVCAR-4 = system: OVCAR-4
UACC-257 = system: UACC-257
MDA-MB-231 = system: MDA-MB-231
HCC 2998 = system: HCC 2998
SK-MEL-2 = system: SK-MEL-2

Measured: GI50

CC(=O)NC(C)(C)C1CCC(C)CC1 (centres undefined)
> 100 µM: HCT-15
inactive: HOP-62 > 100 µM | RPMI-8226 > 100 µM | 786-0 > 100 µM | MCF7 > 100 µM | SF-539 > 100 µM | IGROV-1 > 100 µM | HCT-116 > 100 µM | SK-MEL-5 > 100 µM | COLO 205 > 100 µM | PC-3 > 100 µM | NCI/ADR-RES > 100 µM | SK-MEL-28 > 100 µM | NCI-H23 > 100 µM | OVCAR-3 > 100 µM | OVCAR-4 > 100 µM | UACC-257 > 100 µM | MDA-MB-231 > 100 µM | HCC 2998 > 100 µM

CN1CCC/C1=C1\C(=O)c2cccn2C1=O
inactive: HOP-62 > 100 µM | RPMI-8226 > 100 µM | 786-0 > 100 µM | MCF7 > 100 µM | IGROV-1 > 100 µM | HCT-116 > 100 µM | SK-MEL-2 > 100 µM | SK-MEL-5 > 100 µM | COLO 205 > 100 µM | PC-3 > 100 µM | NCI/ADR-RES > 100 µM | SK-MEL-28 > 100 µM | NCI-H23 > 100 µM | OVCAR-3 > 100 µM | OVCAR-4 > 100 µM | UACC-257 > 100 µM | MDA-MB-231 > 100 µM | HCC 2998 > 100 µM
> 100 µM: HCT-15

CC(OC(=O)C(CC(=O)OC(C)(C)C)NC(=O)OC(C)(C)C)C(=O)OCc1ccccc1 (centres undefined)
inactive: HOP-62 > 100 µM | RPMI-8226 > 100 µM | 786-0 > 100 µM | MCF7 > 100 µM | SF-539 > 100 µM | IGROV-1 > 100 µM | HCT-116 > 100 µM | SK-MEL-2 > 100 µM | COLO 205 > 100 µM | PC-3 > 100 µM | NCI/ADR-RES > 100 µM | SK-MEL-28 > 100 µM | NCI-H23 > 100 µM | OVCAR-3 > 100 µM | OVCAR-4 > 100 µM | UACC-257 > 100 µM | MDA-MB-231 > 100 µM | HCC 2998 > 100 µM
> 100 µM: HCT-15

CCCNC(=O)CCC(C)C1CCC2C3C(C[C@H](OC(C)=O)[C@]12C)[C@@]1(C)CCC2(C[C@H]1C[C@H]3OC(C)=O)OOC1(CC[C@]3(C)C4C[C@H](OC(C)=O)[C@]5(C)C(C(C)CCC(=O)NCCC)CCC5C4[C@H](OC(C)=O)C[C@@H]3C1)OO2 (some centres undefined)
inactive: HOP-62 20.8 µM | RPMI-8226 > 100 µM | 786-0 > 100 µM | MCF7 > 100 µM | IGROV-1 20.2 µM | HCT-116 > 100 µM | SK-MEL-2 > 100 µM | SK-MEL-5 36.8 µM | COLO 205 > 100 µM | PC-3 > 100 µM | NCI/ADR-RES > 100 µM | SK-MEL-28 > 100 µM | NCI-H23 > 100 µM | OVCAR-3 > 100 µM | OVCAR-4 > 100 µM | UACC-257 31 µM | MDA-MB-231 11.3 µM | HCC 2998 > 100 µM
> 100 µM: HCT-15

CN1CCN(Cc2nc3c(s2)CCc2sccc2-3)CC1
inactive: HOP-62 > 100 µM | RPMI-8226 > 100 µM | 786-0 95.3 µM | MCF7 79.8 µM | IGROV-1 > 100 µM | HCT-116 62.5 µM | SK-MEL-2 > 100 µM | SK-MEL-5 36.4 µM | COLO 205 > 100 µM | PC-3 63.8 µM | NCI/ADR-RES > 100 µM | SK-MEL-28 25.4 µM | NCI-H23 > 100 µM | OVCAR-3 > 100 µM | OVCAR-4 > 100 µM | UACC-257 79.3 µM | MDA-MB-231 52.2 µM | HCC 2998 51.4 µM
> 100 µM: HCT-15

CC(=O)OC1OC(c2ccoc2)C[C@@]12C1CCC3O[C@]3(C)[C@]1(C)C[C@H](OC(C)=O)[C@H]2C (some centres undefined)
inactive: RPMI-8226 44 µM | 786-0 > 75 µM | MCF7 44.9 µM | SF-539 > 75 µM | IGROV-1 > 75 µM | HCT-116 > 75 µM | SK-MEL-2 > 75 µM | SK-MEL-5 > 75 µM | COLO 205 > 75 µM | PC-3 44.7 µM | NCI/ADR-RES > 75 µM | SK-MEL-28 > 75 µM | NCI-H23 74.1 µM | OVCAR-3 > 75 µM | OVCAR-4 59.2 µM | UACC-257 > 75 µM | MDA-MB-231 45.9 µM | HCC 2998 > 75 µM
> 75 µM: HCT-15

Cc1nc2ccc(Cl)cc2c(Cl)c1CCCl
43.1 µM: HCT-15
inactive: HOP-62 42.4 µM | RPMI-8226 35.2 µM | 786-0 > 100 µM | MCF7 30.6 µM | SF-539 > 100 µM | IGROV-1 72.6 µM | HCT-116 25.4 µM | SK-MEL-2 29.6 µM | SK-MEL-5 25.3 µM | COLO 205 57.3 µM | PC-3 80.7 µM | NCI/ADR-RES 33.5 µM | SK-MEL-28 > 100 µM | NCI-H23 60.4 µM | OVCAR-3 48 µM | UACC-257 74 µM | MDA-MB-231 83.6 µM | HCC 2998 30.7 µM

CC(=O)OCC(OC(C)=O)C(OC(C)=O)C(/C=N\Nc1nc2ccccc2c(=O)[nH]1)=N\Nc1nc2ccccc2c(=O)[nH]1 (centres undefined)
> 100 µM: HCT-15
inactive: HOP-62 > 100 µM | RPMI-8226 > 100 µM | 786-0 > 100 µM | MCF7 > 100 µM | SF-539 > 100 µM | IGROV-1 > 100 µM | HCT-116 > 100 µM | SK-MEL-2 > 100 µM | SK-MEL-5 > 100 µM | COLO 205 > 100 µM | PC-3 > 100 µM | NCI/ADR-RES > 100 µM | SK-MEL-28 > 100 µM | NCI-H23 > 100 µM | OVCAR-3 > 100 µM | UACC-257 17.3 µM | MDA-MB-231 > 100 µM | HCC 2998 19.1 µM

C=C=C(C)C(=O)N(C(C)C)C(C)C
inactive: HOP-62 > 100 µM | RPMI-8226 > 100 µM | 786-0 > 100 µM | MCF7 > 100 µM | IGROV-1 > 100 µM | HCT-116 > 100 µM | SK-MEL-5 > 100 µM | COLO 205 > 100 µM | PC-3 > 100 µM | NCI/ADR-RES > 100 µM | SK-MEL-28 > 100 µM | NCI-H23 > 100 µM | OVCAR-3 > 100 µM | OVCAR-4 > 100 µM | UACC-257 > 100 µM | MDA-MB-231 > 100 µM | HCC 2998 > 100 µM
> 100 µM: HCT-15

COc1ccc2c(c1)CC1C3(CCCCC23)CC[N+]1(C)C (centres undefined)
inactive: HOP-62 > 100 µM | RPMI-8226 > 100 µM | 786-0 > 100 µM | MCF7 > 100 µM | IGROV-1 > 100 µM | HCT-116 > 100 µM | SK-MEL-2 > 100 µM | SK-MEL-5 > 100 µM | COLO 205 > 100 µM | PC-3 > 100 µM | NCI/ADR-RES > 100 µM | SK-MEL-28 > 100 µM | NCI-H23 > 100 µM | OVCAR-3 75.5 µM | OVCAR-4 > 100 µM | UACC-257 > 100 µM | MDA-MB-231 > 100 µM | HCC 2998 > 100 µM
> 100 µM: HCT-15
